Experimental data published in US20220340687A1 (NOVARTIS AG, priority 2019, published 2022).

Experiments:
Format in all cases: cell-based, human
[1] = test system: pDCs cocultured with naïve CD4+ T cells; test: Blocking experiments (IDO, PD-L1, IFN-α) on Treg cells generation by pDCs in coculture; settings: added to the coculture; p=0.07
Text: Additionally, it is claimed that IFN-α itself induces the generation of Treg cells.

[2] = test system: pDCs cocultured with naïve CD4+ T cells; test: Generation of Treg cells by pDCs: omalizumab in comparison to corticosteroids; settings: 5 or 10 mg/mL of omalizumab for 24 hours before crosslinker and TLR9-L; coculture 5 days
Protocol: After 24 hours, the pDCs were washed and cocultured with naïve CD4+ T cells for 5 days.

pDCs [3] = test: Cytokine signature of TLR9-L-activated pDCs under IgE-FcεR1-crosslinker (ELISA); settings: omalizumab 10 mg/mL 24 hours prior to crosslinker and TLR9-L, ELISA 24 hours after activation, compared to crosslinker condition
Protocol: Then, the cytokine profile was analysed by ELISA 24 hours after activation.

pDCs [4] = test: Viability of pDCs after incubation with Oma; settings: 24 hours incubation with Oma
Protocol: (§1) A) Left: Frequency of FcεR1α-bound IgE+ cells gated in pDCs. Right: Frequency of cells with unoccupied FcεR1, gated in pDCs (n=4). B) Viability of pDCs after 24 hours incubation with Oma (n=2). Values are given as mean±SEM. **p<0.01, *p<0.05 in paired t-test comparing multiple conditions.

[5] = test system: IgE bound to FcεR1 on pDCs; test: Removal of membrane-bound IgE from purified pDCs; settings: pDCs from atopic donors, IL-3, 5, 10 and mg/mL of Oma, 24 hours
Protocol: as §1

Sequence of IgE bound to FcεR1 on pDCs (P01854 1-428 isoform P01854-1): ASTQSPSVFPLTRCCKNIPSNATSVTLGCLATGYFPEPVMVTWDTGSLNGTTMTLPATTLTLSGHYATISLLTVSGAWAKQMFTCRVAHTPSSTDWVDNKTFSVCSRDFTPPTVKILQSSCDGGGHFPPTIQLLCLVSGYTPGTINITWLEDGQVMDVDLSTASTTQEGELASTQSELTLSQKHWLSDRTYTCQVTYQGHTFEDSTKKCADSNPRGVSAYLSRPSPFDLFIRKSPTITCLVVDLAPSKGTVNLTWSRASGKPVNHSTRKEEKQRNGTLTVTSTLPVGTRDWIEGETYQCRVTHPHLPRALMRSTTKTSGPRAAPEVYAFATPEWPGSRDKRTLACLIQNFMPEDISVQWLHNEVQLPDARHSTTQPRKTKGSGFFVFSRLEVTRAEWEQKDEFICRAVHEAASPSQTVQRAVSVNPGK

Row | Molecule | pDCs capacity to induce Treg cells under IgE-FcεR1-crosslinker condition [1] | crosslinker-induced decrease of the frequency of induced Treg cells [2] | TNF-α levels (pDCs [3]; p=0.04) | pDCs capacity to produce IFN-α (pDCs [3]; p=0.05) | pDCs viability (pDCs [4]) | IgE bound to FcεR1 on pDCs (IgE mean fluorescence intensity, MFI) [5] | frequency of pDCs with FcεR1-bound IgE (FcεR1+IgE+pDCs) [5] | levels of pDCs with unoccupied FcεR1 (FcεR1+IgE-pDCs) [5]
1 | Nc1ccccc1C(=O)CC(N)C(=O)O (centres unmarked) [kyn, kynurenine] | increased | – | – | – | – | – | – | –
2 | Omalizumab: recombinant DNA-derived humanized monoclonal antibody that selectively binds to free, circulating human immunoglobulin E (IgE) | – | reverted by Omalizumab in a dose dependent manner | retained low TNF-α levels | restored pDCs capacity to produce IFN-α | did not affect pDCs viability | decrease in IgE mean fluorescence intensity (MFI) in a dose-dependent manner | significant reduction | increased levels
